From US6174888A, “2-amino-7-(1-substituted-2-hydroxyethyl)-3,5-dihydropyrrolo[3,2-D]pyrimidin -4-ones” (Novartis AG, priority 1998, dated 2001)

Assays:
[1] = biological target: T1, Calf spleen PNP (Bos taurus, UniProt P55859); assay: PNP inhibition in vitro, colorimetric enzymic determination of inorganic phosphate (PNP and xanthine oxidase, substrate inosine); type: biochemical; details: 1 mM phosphate concentration
T1 construct: Calf spleen PNP is used as the enzyme source; from tissue; host or cells: calf spleen
T1 sequence (P55859 1-289): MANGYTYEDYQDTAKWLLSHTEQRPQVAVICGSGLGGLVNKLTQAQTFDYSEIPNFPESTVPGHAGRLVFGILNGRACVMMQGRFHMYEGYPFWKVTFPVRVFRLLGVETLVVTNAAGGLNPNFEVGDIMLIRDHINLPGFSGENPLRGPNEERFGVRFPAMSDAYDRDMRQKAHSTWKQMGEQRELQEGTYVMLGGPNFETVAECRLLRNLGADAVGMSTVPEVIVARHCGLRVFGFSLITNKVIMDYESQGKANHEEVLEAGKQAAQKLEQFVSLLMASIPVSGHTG
Experimental: PNP inhibition can also be determined in vitro as follows: An enzymic method for the determination of inorganic phosphate (see Chem. Pharm. Bull., 1981, 29:1451-5), based on the principle of forming hydrogen peroxide with purine nucleoside phosphorylase (PNP) and xanthine oxidase, is used to colorimetrically measure the degree of linkage between enzyme and substrate (inosine). Calf spleen PNP is used as the enzyme source. The IC50 values for the compounds studied are determined graphically at two phosphate concentrations (1 and 50 mM) from a plot of percent inhibition versus compound concentration.

[2] = test system: Human CCRF-CEM cells; assay: potentiation of the cell growth inhibitory activity (cytotoxicity) of 2'-deoxyguanosine, CCRF-CEM cell assay; type: cell-based; details: d-Guo 10 μM, increase in cell number between 0 and 72 hours
Experimental: The selective suppression of spontaneous T-cell proliferation in vitro is measured by the potentiation of the cell growth inhibitory activity (cytotoxicity) of 2'-deoxyguanosine (d-Guo) by the compounds of the invention, determined as follows: Human CCRF-CEM cells are grown in RPMI-1640 medium. To suspension cultures of these cells, d-Guo at a fixed concentration (10 μM) and the candidate PNP inhibitor at varied concentrations are added and the number of cells are determined in a Coulter counter 24, 48, and 72 hours thereafter. […] This method is similar to that previously used to determine the effectiveness of PNP inhibitors on potentiation of the toxicity of d-Guo. [See D. A. Shewach et al., Cancer Res., 46, 519 (1986); J. C. Sircar et al., Agents and Actions, 21, 253 (1987), also Methods in Pharmacology, D. M. Paten, ed. 1985, pp. 147-162].

[3] = test system: PNP; assay: PNP inhibition in vivo: increased plasma level of inosine in mice; details: 10 mg/Kg p.o.
Experimental: Briefly, mice are treated orally with the PNP inhibitor suspended in fortified cornstarch (3% cornstarch suspension in water with 0.33% Tween 80 and 5% PEG 400) at a final volume of 10 ml/kg. One or more hours after a single oral dose of compound, the mice are bled by cardiac puncture into 25 U/ml heparin to obtain plasma. The samples are analyzed for both inosine and drug levels by a gradient reverse-phase high performance liquid chromatography (HPLC) method (see Anal Chem, 1977, 49:2237-41). Quantitation is performed using an internal standard method with 2',3'-dideoxyinosine (DDI) as the internal standard.

[4] = test system: collagen II induced arthritis; assay: collagen II induced arthritis in mice model; type: in vivo, mice (DBA/1LacJ); details: 20 mg/Kg/day, oral
Experimental: The antiarthritic activity can be determined in the collagen II induced arthritis in mice model. DBA/1LacJ female mice, 6-8 weeks old, are immunized with 100 μg of chicken type II collagen emulsified in Freund's complete adjuvant (FCA) by injecting at the base of the tail on day 0. On day 17 after collagen injection, the immune response to type II collagen is boosted with a subcutaneous injection of 200 μg LPS solubilized in PBS. Paws are examined on days 17, 21, 24, 28, 31, 35, and 42 and scored for the symptoms of arthritis based on criteria such as inflammation, swelling and ankylosis. Compounds are suspended in corn starch vehicle and administered orally to mice once daily beginning on day 1 and continuing through day 42.

[5] = test system: transplant rejection; assay: mouse tail skin transplant rejection model; type: in vivo, mouse (C57BL/10-SnJ and B10.BR/SgSnJ)
From the text: Protection against transplant rejection can be determined in a mouse tail skin transplantation procedure.
Mice are anesthetized with tribromoethanol i.p. injection according to the method of Papaioannou and Fox (Lab. Animal Science 1993;43:189-92). The mouse tail skin transplant rejection model is a modification of that described by Baily and Usama, (Transpl. Bull. 1960;7:424-5). Four skin grafts per mouse are exchanged between strains [C57BL/10-SnJ (H-2K^b) and B10.BR/SgSnJ (H-2K^k)] at surgery (d0). Fitted skin grafts are made with a scalpel, and tail graft sites are protected with tubing for 2 days following surgery. Mouse tails are evaluated at day 7 for missing grafts. Only those graft sites that have patent grafts at day 7 are evaluated at later scoring intervals. Grafts are scored numerically for signs of rejection at ~weekly scoring intervals starting day 14. Dose-group mean graft scores are compared statistically.

Row | Compound | IC50 [1] [nM] | IC50 [2] [nM] | increase in the plasma level of inosine [3] | antiarthritic activity [4] | protection against transplant rejection ([5]; 50 mg/Kg/day, mouse) | effect of combination with cyclosporin in the transplant rejection model ([5]; combination of a compound of the invention, e.g. of example 1, and cyclosporin)
1 | Nc1nc2c([C@@H](CO)c3ccccc3)c[nH]c2c(=O)[nH]1 [3(f), 2-Amino-7-(2(S)-hydroxy-1-phenylethyl)-3,5-dihydro-4H-pyrrolo[3,2-d]-pyrimidin-4-one] | ~10 | ~100 | significant increase | – | – | –
2 | Nc1nc2c([C@@H](CO)c3ccccc3F)c[nH]c2c(=O)[nH]1 [Example 1, 2-amino-7-[1-(2-flourophenyl)-2(R)-hydroxyethyl]-3,5-dihydro-4H-pyrrolo[3,2-d]pyrimidin-4-one] | ~10 | ~75 | significant increase | effective | effective in protecting against transplant rejection | superior to either cyclosporin or the PNP inhibitor alone
